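Following 48 hours of exposure in 96-well plates, responses at five concentrations were used to interpolate endpoints linearly. The concentration for 50% growth inhibition is given as GI50.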 Calls of active or inactive are those of the source. No stated cut-off is given here; in the data, active = GI50 up to about 1.1 µM and inactive = higher.
Key:
Assay in all cases: NCI tumour cell line growth inhibition, 48 h
NCI-H522 = tested on: NCI-H522
COLO 205 = tested on: COLO 205
SK-OV-3 = tested on: SK-OV-3
OVCAR-8 = tested on: OVCAR-8
NCI-H23 = tested on: NCI-H23
DU-145 = tested on: DU-145
RPMI-8226 = tested on: RPMI-8226
MDA-MB-435 = tested on: MDA-MB-435
SK-MEL-5 = tested on: SK-MEL-5
A549 = tested on: A549
M14 = tested on: M14
UACC-62 = tested on: UACC-62
SW-620 = tested on: SW-620
BT-549 = tested on: BT-549
SK-MEL-2 = tested on: SK-MEL-2
RXF 393 = tested on: RXF 393
SNB-19 = tested on: SNB-19
SN12C = tested on: SN12C
OVCAR-5 = tested on: OVCAR-5
HCT-15 = tested on: HCT-15
CCRF-CEM = tested on: CCRF-CEM
PC-3 = tested on: PC-3
UO-31 = tested on: UO-31
EKVX = tested on: EKVX
OVCAR-3 = tested on: OVCAR-3
U-251 = tested on: U-251
SNB-75 = tested on: SNB-75
SF-268 = tested on: SF-268
HCT-116 = tested on: HCT-116
NCI/ADR-RES = tested on: NCI/ADR-RES
MDA-N = tested on: MDA-N
KM12 = tested on: KM12
TK-10 = tested on: TK-10
HT-29 = tested on: HT-29
OVCAR-4 = tested on: OVCAR-4
786-0 = tested on: 786-0
UACC-257 = tested on: UACC-257
ACHN = tested on: ACHN
IGROV-1 = tested on: IGROV-1
HL-60 = tested on: HL-60
NCI-H226 = tested on: NCI-H226
SK-MEL-28 = tested on: SK-MEL-28
HOP-62 = tested on: HOP-62
CAKI-1 = tested on: CAKI-1
MDA-MB-231 = tested on: MDA-MB-231
SF-295 = tested on: SF-295
HOP-92 = tested on: HOP-92
T47D = tested on: T47D
SF-539 = tested on: SF-539
Hs-578T = tested on: Hs-578T
HCC 2998 = tested on: HCC 2998
K562 = tested on: K562
SR = tested on: SR
LOX IMVI = tested on: LOX IMVI
MCF7 = tested on: MCF7
NCI-H460 = tested on: NCI-H460
Malme-3M = tested on: Malme-3M
A498 = tested on: A498
MOLT-4 = tested on: MOLT-4

Structure (SMILES): CS(=O)(=O)c1nc(-c2cc3c(c(S(C)(=O)=O)n2)CCCC3)cc2c1CCCCC2
- GI50 (NCI-H522): 21.1 µM (inactive)
- GI50 (COLO 205): > 100 µM (inactive)
- GI50 (SK-OV-3): 72.4 µM (inactive)
- GI50 (OVCAR-8): 32.5 µM (inactive)
- GI50 (NCI-H23): > 100 µM (inactive)
- GI50 (DU-145): > 100 µM (inactive)
- GI50 (RPMI-8226): > 100 µM (inactive)
- GI50 (MDA-MB-435): > 100 µM (inactive)
- GI50 (SK-MEL-5): > 100 µM (inactive)
- GI50 (A549): > 100 µM (inactive)
- GI50 (M14): > 100 µM (inactive)
- GI50 (UACC-62): > 100 µM (inactive)
- GI50 (SW-620): > 100 µM (inactive)
- GI50 (BT-549): > 100 µM (inactive)
- GI50 (SK-MEL-2): > 100 µM (inactive)
- GI50 (RXF 393): 48.6 µM (inactive)
- GI50 (SNB-19): > 100 µM (inactive)
- GI50 (SN12C): > 100 µM (inactive)
- GI50 (OVCAR-5): > 100 µM (inactive)
- GI50 (HCT-15): > 100 µM
- GI50 (CCRF-CEM): > 100 µM (inactive)
- GI50 (PC-3): > 100 µM (inactive)
- GI50 (UO-31): 0.0206 µM (active)
- GI50 (EKVX): > 100 µM (inactive)
- GI50 (OVCAR-3): > 100 µM (inactive)
- GI50 (U-251): > 100 µM (inactive)
- GI50 (SNB-75): 22.4 µM (inactive)
- GI50 (SF-268): 16.8 µM (inactive)
- GI50 (HCT-116): > 100 µM (inactive)
- GI50 (NCI/ADR-RES): > 100 µM (inactive)
- GI50 (MDA-N): > 100 µM (inactive)
- GI50 (KM12): > 100 µM (inactive)
- GI50 (TK-10): > 100 µM (inactive)
- GI50 (HT-29): > 100 µM (inactive)
- GI50 (OVCAR-4): > 100 µM (inactive)
- GI50 (786-0): > 100 µM (inactive)
- GI50 (UACC-257): > 100 µM (inactive)
- GI50 (ACHN): > 100 µM (inactive)
- GI50 (IGROV-1): 11.2 µM (inactive)
- GI50 (HL-60): > 100 µM (inactive)
- GI50 (NCI-H226): > 100 µM (inactive)
- GI50 (SK-MEL-28): > 100 µM (inactive)
- GI50 (HOP-62): 31.6 µM (inactive)
- GI50 (CAKI-1): 59.3 µM (inactive)
- GI50 (MDA-MB-231): 65.5 µM (inactive)
- GI50 (SF-295): > 100 µM (inactive)

Structure (SMILES): Cc1cccc(C)c1NC(=O)C(=O)CC(=O)/C=C/c1ccccc1
- GI50 (NCI-H522): > 100 µM (inactive)
- GI50 (HOP-92): > 100 µM (inactive)
- GI50 (SK-OV-3): > 100 µM (inactive)
- GI50 (OVCAR-8): > 100 µM (inactive)
- GI50 (NCI-H23): > 100 µM (inactive)
- GI50 (RPMI-8226): > 100 µM (inactive)
- GI50 (T47D): > 100 µM (inactive)
- GI50 (MDA-MB-435): > 100 µM (inactive)
- GI50 (SK-MEL-5): > 100 µM (inactive)
- GI50 (SF-539): > 100 µM (inactive)
- GI50 (A549): > 100 µM (inactive)
- GI50 (M14): > 100 µM (inactive)
- GI50 (UACC-62): > 100 µM (inactive)
- GI50 (SW-620): > 100 µM (inactive)
- GI50 (BT-549): > 100 µM (inactive)
- GI50 (Hs-578T): > 100 µM (inactive)
- GI50 (SK-MEL-2): > 100 µM (inactive)
- GI50 (RXF 393): > 100 µM (inactive)
- GI50 (SNB-19): > 100 µM (inactive)
- GI50 (SN12C): > 100 µM (inactive)
- GI50 (HCC 2998): > 100 µM (inactive)
- GI50 (OVCAR-5): > 100 µM (inactive)
- GI50 (K562): > 100 µM (inactive)
- GI50 (HCT-15): > 100 µM
- GI50 (CCRF-CEM): > 100 µM (inactive)
- GI50 (PC-3): > 100 µM (inactive)
- GI50 (SR): > 10 µM (inactive)
- GI50 (LOX IMVI): > 100 µM (inactive)
- GI50 (UO-31): > 100 µM (inactive)
- GI50 (EKVX): > 100 µM (inactive)
- GI50 (MCF7): > 100 µM (inactive)
- GI50 (OVCAR-3): > 100 µM (inactive)
- GI50 (U-251): > 100 µM (inactive)
- GI50 (SNB-75): > 100 µM (inactive)
- GI50 (SF-268): > 100 µM (inactive)
- GI50 (HCT-116): > 100 µM (inactive)
- GI50 (NCI/ADR-RES): > 100 µM (inactive)
- GI50 (MDA-N): > 100 µM (inactive)
- GI50 (KM12): > 100 µM (inactive)
- GI50 (TK-10): > 100 µM (inactive)
- GI50 (HT-29): > 100 µM (inactive)
- GI50 (NCI-H460): 73.6 µM (inactive)
- GI50 (OVCAR-4): > 100 µM (inactive)
- GI50 (786-0): > 100 µM (inactive)
- GI50 (UACC-257): > 100 µM (inactive)
- GI50 (Malme-3M): > 100 µM (inactive)
- GI50 (ACHN): > 100 µM (inactive)
- GI50 (IGROV-1): > 100 µM (inactive)
- GI50 (HL-60): > 100 µM (inactive)
- GI50 (NCI-H226): > 100 µM (inactive)
- GI50 (SK-MEL-28): > 100 µM (inactive)
- GI50 (A498): > 100 µM (inactive)
- GI50 (HOP-62): > 100 µM (inactive)
- GI50 (CAKI-1): > 100 µM (inactive)
- GI50 (MDA-MB-231): > 100 µM (inactive)
- GI50 (SF-295): > 100 µM (inactive)
- GI50 (MOLT-4): > 100 µM (inactive)
